The values below come from US11883423B2, “Nucleobase analogue derivatives and their applications” (BOARD OF REGENTS, THE UNIVERSITY OF TEXAS SYSTEM, priority 2014, dated 2024).

Where a name gives a salt, the structure may show the parent alone.

Data set [1] deals with Panc-1-Luc tumors. In words: Orthotopic Panc-1-Luc tumors in nude mice: gemcitabine HCl versus mixture with DHA. In kind it is in vivo. The settings on record: about 0.11 mmole/kg each, twice a week, 10 times, started 2 weeks after implantation. The protocol:
The doses of both gemcitabine HCl (˜33.7 mg/kg) and DHA (˜35.3 mg/kg) were about 0.11 mmole/kg. Mice were sacrificed in the 8th week after tumor implantation, and the tumors were excised and weighed. The doses were based on the average weight of mice in the same group on the day of injection, and were adjusted only if the weight of an individual mouse was above or below 10% of the average weight.

Details of data set [2]: species or system BALB/c mice. The following applies: female, BALB/c, mouse, in vivo, iv, 75 mg/kg, 1 h. The method, then:
The biodistribution of Gem-DHA was further evaluated in healthy BALB/c mice. Briefly, female BALB/c mice (Charles River, 14-16 weeks, n=3) were injected via the tail vein with Gem-DHA in a Tween 80/ethanol/water solution containing 5% (w/v) mannitol at a dose of 75 mg/kg. After 1 h, mice were euthanized to collect pancreas, lung, spleen, liver, heart, and kidneys. Gem-DHA was extracted from the samples and analyzed using HPLC. As a control, mice (n=3) were also injected with gemcitabine HCl (75 mg/kg) in 5% (w/v) mannitol solution and euthanized 1 h later to collect their pancreas. Gemcitabine was extracted using the following method. Briefly, once the pancreas was collected, it was weighed, placed into 0.25 ml of PBS containing 40 μg of tetrahydrouridine (a deoxycytidine deaminase inhibitor) and homogenized using a bead beater. Deoxyuridine (dU, 20 μl of 20 μg/ml) was then added into the homogenate as an internal standard. Acetonitrile was used to precipitate the proteins twice, and gemcitabine content in the supernatant was analyzed using HPLC. […] Therefore, it appeared that Gem-DHA preferred to distribute in pancreatic tissues.

Data set [3] has as its system MIA PaCa-2 cells. In words: Cytotoxicity of Gem-ARA, MTT assay, MIA PaCa-2 cells. The class given is cell-based, human. The following applies: Homo sapiens, up to 72 h, mean ± SD (n>3). The method, then: (§1) To understand the effect of the omega-3 polyunsaturated fatty acid nature of the DHA (i.e., the docosahexaedecanoyl group) in the Gem-DHA on its cytotoxicity against tumor cells, gemcitabine was also conjugated to arachidonic acid, an omega-6 polyunsaturated fatty acid, to synthesize 4-(N)-arachidonyl gemcitabine (Gem-ARA) (FIG. 4). Human pancreatic cancer cells (MIA PaCa-2 or BxPC-3) were seeded (3,000/well) in 96-well plates. After overnight incubation, cells were treated with various concentrations of gemcitabine HCl or Gem-ARA at 37° C., 5% CO2 for up to 72 h. Gemcitabine HCl was dissolved in phosphate buffered saline (PBS, pH 7.4, 10 mM), and Gem-ARA was dissolved in DMSO. The maximum amount of DMSO added per well was 0.9 μL, which was found non-toxic. The number of viable cells after the incubation was determined using an MTT assay as described above. The 50% inhibition concentration (IC50) values were estimated using GraphPad prism 5 parameters curve fittings.
In general terms: Tetrazolium assays rely on reduction of a dye to a coloured formazan, in cell work by metabolically active cells.

Data set [4] has as its system Panc-02 cells. Nature of the data set: Anti-proliferative activity, MTT assay, Panc-02 cells. In kind it is cell-based. The following applies: Mus musculus, Panc02, 24 h. The protocol:
(§2) The anti-proliferative activity of Gem-DHA was evaluated in Panc-02, TC-1, Panc-1-Luc, and BxPC-3 cell lines. For Panc-02 and TC-1 cells, cells (1,500/well for Panc-02 and 3,000/well for TC-1) were seeded in 96-well plates and incubated at 37° C. and 5% CO2 overnight. The cells were then treated with various concentrations of Gem-DHA or other compounds for 24 h. For BxPC-3 and Panc-1-Luc cells, 3,000 and 1,000 cells/well were used, respectively, and cells were co-incubated with the Gem-DHA for 72 h. Cell viability was determined using an MTT assay as previously described (Naguib YW et al. Mol Pharm. 2014, 11(4), 1239-1249). Gemcitabine HCl was dissolved in cell culture medium, whereas Gem-DHA and DHA were dissolved in dimethylsulfoxide (DMSO). The values of IC50 were calculated using GraphPad Prism (GraphPad software, Inc., La Jolla, CA).

Data set [5] concerns advanced pancreatic cancer. The settings on record: cited from earlier work.
The test system of data set [6] is BxPC-3 cells. In words: Anti-proliferative activity, MTT assay, BxPC-3 cells. The class given is cell-based, human. The settings on record: Homo sapiens; BxPC-3 cells, 72 h. The method, then:
as §2

In data set [7] the test system is Panc-02 tumor cells. Nature of the data set: Cytotoxicity after 4 h co-incubation, MTT test. In kind it is cell-based, mouse. The settings on record: Panc-02 cells, at concentrations of more than 80 μM. The protocol: The mechanisms underlying the cytotoxicity of the Gem-DHA may be different from that of gemcitabine. For example, in cell culture studies, Panc-02 cells were seeded into 96-well plates (1,500 cells per well) and incubated at 37° C., 5% CO2 for 24 h. They were then co-incubated with various concentrations of Gem-DHA, gemcitabine HCl alone, or DHA alone for 4 h, and cell viability was determined using an MTT test.

Data set [8] deals with BxPC-3 cells. In words: Cytotoxicity of Gem-ARA, MTT assay, BxPC-3 cells. The following applies: Homo sapiens, up to 72 h, mean ± SD (n>3). The class given is cell-based, human. The method, then: as §1
The subject of data set [9] is Panc-1-Luc tumors. In words: Antitumor activity against orthotopic Panc-1-Luc tumors in nude mice, with tumor histology. The class given is in vivo. The source says: Nude mice with intrapancreatically injected Panc-1-Luc human pancreatic cancer cells were used as a mouse model of pancreatic cancer. The National Institutes of Health guidelines for animal use and care were followed Animal protocols were approved by the Institutional Animal Care and Use Committee at the University of Texas at Austin. Panc-1-Luc cells (Muniz VP et al. Mol Cancer Res. 2011, 9(7), 867-877) were implanted orthotopically by injecting 1×10^6 cells into (the tail of) the pancreas.
Panc-1-Luc cell suspension was prepared at a concentration of 2×10^7 per ml in a 1:1 (v/v) mixture of DMEM and Matrigel. Tumor cells were then injected into the pancreas of male athymic nude mice (6-8 weeks, Charles River Laboratories, Wilmington, Mass.) following a surgical procedure (Raut CP et al. Cancer Biol Ther. 2004, 3(12), 1217-1224; Bruns CJ et al. Neoplasia. 1999, 1(1), 50-62). Briefly, after mice were anesthetized using isoflurane, the skin and peritoneum were cut open about 1 cm in length using sterile surgical scalpels. The pancreas was pulled out, and 50 μL of the cell suspension were injected slowly until a small bleb was formed. After the needle was withdrawn, a small cotton plug was applied for 10 s. The pancreas was returned back, the peritoneum was sutured with Monocryl™ bioresorbable sutures (Ethicon, Somerville, N.J.), and the skin was then closed using surgical clips. Mice were s.c. injected with buprenorphine (0.1 mg/kg) as a pain killer and were left to heal for one week. Tumor progress was monitored using an IVIS™ Spectrum imaging system (Caliper, Hopkinton, MA). For IVIS imaging, each mouse was i.p. injected with a luciferin solution (15 mg/ml) at a dose of 0.15 mg/g body weight in sterile DPBS, anesthetized with isoflurane, and imaged 10 min after luciferin injection. Four weeks after tumor implantation, mice with tumors were randomized into 3 groups (n=5-7) and intraperitoneally injected (i.p) with Gem-DHA (50 mg/kg, ˜0.087 mmole/kg), gemcitabine HCl (26.1 mg/kg, ˜0.087 mmole/kg), or left untreated. Gem-DHA was in a Tween 80/ethanol/water solution with 5% (w/v) of mannitol, and gemcitabine HCl was in sterile mannitol solution (5%, w/v). Treatments were repeated twice a week for a total 7 doses. Thirty days after the first treatment, mice were sacrificed and tumors were dissected from the pancreas, weighed, and fixed in formalin. The doses were based on the average weight of mice in the same group on the day of injection, and were adjusted only if the weight of an individual mouse was above or below 10% of the average weight.
Tumor tissues were sectioned and stained in the Histology and Tissue Analysis Core at Dell Pediatric Research Institute at the University of Texas at Austin or in the Department of
Molecular Carcinogenesis at the University of Texas M.D. Anderson Cancer Center at Science Park (Smithville, Texas) with hematoxylin & eosin (H&E), antibodies against cleaved lamin-A (apoptosis marker), CD-31 (angiogenesis marker), or Ki-67 (proliferation marker). Slides were then scanned, and images were taken using the ScanScope XT (Aperio Technologies, Vista, CA). […] In addition, several areas of necrosis can also be seen in the centers of the tumors. […] Several pyknotic cells with condensed chromatin can also be seen in tumors in mice that were treated with Gem-DHA.

In data set [10] the target is deoxycytidinedeaminases (dCDA) (Homo sapiens, UniProt P32320). The following applies: upon injection, extracellularly and intracellularly; cited from earlier work.
Chain of deoxycytidinedeaminases (dCDA) (P32320 whole entry): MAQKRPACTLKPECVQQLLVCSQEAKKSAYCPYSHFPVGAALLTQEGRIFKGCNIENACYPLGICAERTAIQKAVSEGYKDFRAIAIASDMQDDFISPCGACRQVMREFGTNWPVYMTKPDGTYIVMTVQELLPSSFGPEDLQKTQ

`Nc1ccn([C@@H]2O[C@H](CO)[C@@H](O)C2(F)F)c(=O)n1` [Gemcitabine HCl, 2′, 2′-difluorodeoxycytidine, reference compound]: in data set [1], the “Control of tumor growth (tumor weight)” value is on record as “did not reveal any significant difference”. The “Percent of injected compound recovered in each gram of pancreas” value in data set [2] stood at 0.07±0.03%. Also, the IC50 – broadly, the midpoint of a concentration-inhibition curve – is 50.2 ± 3 nM in data set [3], 4 ± 1.5 nM in [4], 18.5 ± 14.5 nM in data set [6] and 5.52 ± 4.55 nM in [8]. Besides, in data set [5] (patients with advanced pancreatic cancer), the “Improvement in median survival duration” value is 5 week. Moreover, the 12-month survival in data set [5] (standard care for advanced pancreatic cancer) is reported as 18%. Moreover, the “Cytotoxicity after 4 h of co-incubation” value in [7] was “did not show any significant cytotoxicity”. The “Average tumor weight at the end of the study” value in data set [9] (30 days after first treatment, versus untreated) is given as “not significantly different from that in mice that were left untreated”. Also, the “Inhibition of growth of Panc-1-Luc tumors” value in [9] (i.p., ~0.087 mmole/kg (Gem-DHA 50 mg/kg, gemcitabine HCl 26.1 mg/kg), twice a week, 7 doses) is “did not significantly inhibit the growth”. Moreover, the “Cleaved lamin-A positive staining in tumors” value in [9] (versus untreated mice) is on record as “not different from that in mice that were not treated”. The “Micro-vessel density (MVD) in tumors, anti-CD-31 staining” value in data set [9] (versus untreated mice) is recorded as “not different from that in mice that were not treated”. Also, in data set [10], the “Fraction deaminated to dFdU” value is “over 90%”.
